From patent US20070275086A1, “Use of Increased Molecular-Weight Hirudin as an Anticoagulant in Extracorporeal Kidney Replace Therapy” (Max-Planck-Gesellschaft Zur Forderung Der Wissenschaften E.V, priority 1999, published 2007)
Values joined by “and” are separate entries in the source; they are usually repeats but may differ in a detail not shown here. Equal values may be shown once.

Key:
HIT II-positive patients = details: human, in vivo
Description: Patient was anticoagulated with 6900 IU heparin. […] The patient complained during dialysis and also in the dialysis-free intervals of problems relating to blood pressure and in some cases mild states of confusion. […] The average number of blood platelets before and after haemodialysis was between 350 and 400/nl.
The patient was transferred to PEG-hirudin according to the following dosage scheme: first haemodialysis: 0.1 mg/kg as a bolus, second to 10th haemodialysis: 0.05 mg/kg PEG hirudin, 11th haemodialysis and beyond: 0.025 mg/kg. […] The blood level of PEG hirudin fluctuated between 0.4 μg/ml before the start of haemodialysis and 1.0 μg/ml after dialysis. The filling volumes with the Type GFS plus 11 dialysers (GAMBRO) were as follows: under heparin application—the mean value for the last three heparin-anticoagulated dialyses was 87 ml; the filling volume during PEG-hirudin treatment for HD 5-HD 6 was 96 ml.
Creatinine clearance was less than 12 ml/min. The anticoagulant used during haemodialysis was un-fractionated heparin. Additionally, the dialysers (H120, Braun-Melsungen) were “primed” before the start of haemodialysis with 500 units of heparin. The patient received 3000 units of heparin as a bolus and 3000 units of heparin as an infusion during the 3.5 hour haemodialysis. […]

blood platelets = details: human, in vivo
Description: Patient one. […] Patient was anticoagulated with 6900 IU heparin.
The objective and subjective findings which point towards an HIT II condition were no longer evident after the changeover to anticoagulation with PEG-hirudin. The blood platelet counts, which had constantly shown values above 400/nl during the last dialyses under heparin, fell during the PEG-hirudin haemodialysis to the range from 320 to 350/nl; a trend towards continued normalisation was clearly demonstrable.
The patient was then transferred to PEG-hirudin.

[1] = Dialyser filling volume and clotting in the extracorporeal circuit at end of haemodialysis; assay type: in vivo, human
Description: Following this, the patient was transferred to PEG-hirudin.

Description for HIT II antibodies: Patient. […] Patient was anticoagulated with 6900 IU heparin. […] The patient complained during dialysis and also in the dialysis-free intervals of problems relating to blood pressure and in some cases mild states of confusion. […] The average number of blood platelets before and after haemodialysis was between 350 and 400/nl.
Creatinine clearance was less than 12 ml/min. The anticoagulant used during haemodialysis was un-fractionated heparin. Additionally, the dialysers (H120, Braun-Melsungen) were “primed” before the start of haemodialysis with 500 units of heparin. The patient received 3000 units of heparin as a bolus and 3000 units of heparin as an infusion during the 3.5 hour haemodialysis. […] The patient complained of tingling in the extremities, a feeling of restlessness and intermittent state of confusion. Between the dialysis sessions, the patient complained of headaches, malaise and loss of appetite. They stated that the people around them complained that they were irritable and seemed under stress.
This patient had been dialysed for 5 months initially with un-fractionated heparin, then with fractionated heparin (Enoxaparin). Enoxaparin was applied in a dose of 20 mg directly before the start of the dialysis. After an incorrect dialysis (rise in pressure before the dialyser) over the dialysis period of 4.5 h, an additional 10 mg Enoxaparin were applied via an indwelling infusion pump placed before the dialyser (F 50 S, Fresenius). The patient indicated severe shortness of breath, a decline in circulation and blood pressure to base values of 80/30 mmHg shortly after the start of haemodialysis.

Enoxaparin
blood pressure base values shortly after the start of haemodialysis (HIT II-positive patients): 80/30
tests for HIT II antibodies (HIPA test and platelet-factor-4 ELISA) (HIT II antibodies): positive
blood platelets during haemodialysis, reduced down to (blood platelets): 100 nL⁻¹

heparin
filling volume of dialyser ([1]; patient one, Type GFS plus 11 dialysers (GAMBRO), specified 100 ml, heparin: mean of last three dialyses, PEG-hirudin: HD 5-HD 6): 87 mL
filling volume at the end of haemodialysis ([1]; patient two, H120 dialysers, heparin: last two haemodialyses, PEG-hirudin: after the 4th haemodialysis): 71 mL and 73 mL
fall in blood pressure at the start of haemodialysis (HIT II-positive patients): 35 mmHg
HIT II-specific diagnosis (HIPA-test) (HIT II antibodies): positive result
tests for HIT-positive antibodies (HIPA and ELISA) (HIT II antibodies): strongly positive
average number of blood platelets before and after haemodialysis (blood platelets): 350 to 400 nL⁻¹
blood platelet counts (blood platelets): above 400 /nl
